Assay [1] addresses T1, IL-5 (Homo sapiens, UniProt P05113).
T1 construct: made in house; host or cells: baculovirus expression system (from the general materials paragraph)
T1 sequence (P05113 20-134): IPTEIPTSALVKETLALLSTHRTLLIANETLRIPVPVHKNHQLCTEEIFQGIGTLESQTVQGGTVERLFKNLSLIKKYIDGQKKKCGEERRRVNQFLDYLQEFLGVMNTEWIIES
Briefly: IL-5 dependent Ba/F-IL-5 cell proliferation (luciferase). The assay is classed as cell-based. The following applies: dose-response, FIG. 4. Here is the method: PPS inhibited the proliferation of an IL-5 responsive cell line. This occurs at very low doses and is not due to a toxic effect of the PPS as other similarly sulfated polysaccharides have no affect in this assay. These experiments are performed with the IL-5 responsive cells, Ba/F-IL-5. The Ba/F-IL-5 cells were derived from the Ba/F3 cell line.
The Ba/F3 cell line was transformed to be both IL-5 dependent and to express luciferase by co-transfection of the cells with pGL3 control vector (Promega, USA) and pEE6 hcmv-IL-5Rα. The control vector, pGL3 expresses a modified luciferase under the direct control of the SV40 promoter and enhancer, but contains no selectable marker. To prepare pEE6 hcmv-hIL-5Rα a full length human IL-5 receptor α chain (hIL-5R-α) was cloned by RT PCR from HL60 cells. The preparation of the Ba/F-IL-5 cells has been described by Coombe et al, Journal of Immunological Methods 215: 145-150, 1998. […]
After transfection, positive transfectants are selected in 3 μg/ml puromycin. […] The cells are counted with a Coulter Z2 Particle Counter and Size Analyzer (Coulter Electronics, England) and routinely 1.6×10^4 cells are added to microplate wells that contain either no IL-5 (negative control) or various dilutions of IL-5. When the effect of PPS, or other sulfated polysaccharides is to be measured, the wells also contain various concentrations of these molecules. […]

Assay [2] has as its system male C57Bl/6J mice exposed to cigarette smoke. Nature of the assay: Mouse model of emphysema/COPD, chronic cigarette smoke exposure. It is filed as in vivo. The following applies: chronic smoke exposure 6 months, PPS once a day. Here is the method: A mouse model of emphysema was used. Acute and chronic exposure of mice to cigarette smoke lead to lung responses that in part mimic the inflammatory and structural changes observed in COPD. In this model male C57Bl/6J mice are subjected to acute and chronic smoke exposure, with normal room air being the control situation. In the acute study mice were exposed to either room air or to the smoke of five cigarettes (approximately 12 mg of tar and 0.9 mg of nicotine) for 20 minutes. In the chronic study mice were exposed to either room air or to the smoke of three cigarettes/day for 5 days/week for 6 months. The 4 groups of mice were then further divided so that mice within each group also received PPS via an inhaled route.
The animals in the chronic study received PPS once a day for the duration of the experiment. At the completion of the experiment animals were killed and the lungs fixed intratracheally with formalin (5%) and lung volume was measured by water displacement. The lung tissue was prepared for histochemistry and immunohistochemistry, the lung tissues being stained for hematoxylin-eosin and/or periodic acid-Schiff or with antibodies to the macrophage marker Mac-3. The level of desmosine in the lung tissue was also determined. Desmosine is an elastin-specific imino acid; the assessment of desmosine in the lung is taken as an indicator of the lung elastin content. […]

For assay [3], the target named is human MCP-1 (Homo sapiens, UniProt P13500). Briefly: MCP-1 induced migration of THP-1 cells (chemotaxis). It is filed as cell-based. The following applies: 50 μg/ml, MCP-1 10 ng/ml. How it is done: These cells were originally derived from the peripheral blood of a patient with acute monocytic leukaemia. The assay was very similar to that described above. The chemotaxis assays were performed in 96-well Costar chemotaxis plates and human MCP-1 (+/−inhibitor) was added to the bottom chamber and the THP-1 cells in RPMI/1% FCS were added to the top chamber and the plate was incubated at 37° C. for 2.5 hour to allow cells to move from the top chamber into the bottom. The number of cells migrating into the bottom chamber was quantified by labeling with AQUEOUS ONE (30 μl/well) for 4 hours before absorbance at 490 run is read. MCP-1 was used at a final concentration of 10 ng/ml and the inhibitors were the sulfated xylan pentasaccharide (10 and 50 μg/ml) and PPS (10 and 50 μg/ml). In these experiments both PPS and the sulfated xylan pentasaccharide were effective, but PPS was a better inhibitor (FIG. 18) as at 50 μg/ml PPS inhibited cell movement by 89% whereas at the same concentration the sulfated xylan pentasaccharide cell movement by 53%.
human MCP-1, sequence (P13500 24-99): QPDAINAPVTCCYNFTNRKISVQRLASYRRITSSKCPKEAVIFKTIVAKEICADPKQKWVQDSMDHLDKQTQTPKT

Consider Pentosan polysulfate [PPS], for which the “Inhibition of IL-5 dependent Ba/F-IL-5 cell proliferation (in words)” value in assay [1] is recorded as “effective inhibitor”. Also, the “Overall effect in chronic COPD model” value in assay [2] is listed as “acting as an anti-inflammatory agent”. Also, the “Inhibition of cell movement induced by MCP-1” value in assay [3] was 89%.

These data come from US20180078576A1, “SULPHATED XYLANS FOR TREATMENT OR PROPHYLAXIS OF RESPIRATORY DISEASES” (Paradigm Biopharmaceuticals Limited, priority 2007, published 2018).
